How the values were obtained:
[1] = test system: patients treated with benzodiazepines for 3 months or more and requiring benzodiazepine withdrawal; assay: randomized double-blind clinical trial: abrupt benzodiazepine withdrawal with cyamemazine substitution versus gradual withdrawal with bromazepam; assay type: in vivo; details: for patients in whom the withdrawal is still a success: after 6 months; for patients in whom the treatment is successful: after 6 weeks of study, benzodiazepine withdrawal, 168 patients
[2] = test system: benzodiazepine withdrawal syndrome; details: LADER et al. 1987, SCHWEIZER et al. 1998; cited from earlier work
alcohol uptake in rats = details: NAASILA et al. 1998; cited from earlier work

Structure (SMILES) | patients in whom the withdrawal is still a success [1] | patients in whom the treatment is successful [1] | effect on the withdrawal syndrome [2] | action on alcohol uptake (alcohol uptake in rats) | maximum amplitude of the anxiety rebound ([1]; HARS scale (HAMILTON anxiety scale), cyamemazine group versus bromazepam group) | frequency of occurrence of a withdrawal syndrome ([1]; RICKELS withdrawal scale, cyamemazine group versus bromazepam group) | maximum amplitude of the anxiety rebound ([1]; ZUNG anxiety scale, cyamemazine group versus bromazepam group) | percentage of patients exhibiting an anxiety rebound ([1]; cyamemazine group versus bromazepam group)
O=C1CN=C(c2ccccn2)c2cc(Br)ccc2N1 [bromazepam] | 75% | 85% |  |  |  |  |  | 
O=C1CC2(CCCC2)CC(=O)N1CCCCN1CCN(c2ncccn2)CC1 [buspirone] |  |  | not shown any significant effect |  |  |  |  | 
CC(CN(C)C)CN1c2ccccc2Sc2ccc(C#N)cc21 (stereo not shown) [cyamemazine] | 90% | 95% |  | decrease of alcohol uptake | no significant difference | no significant difference | no significant difference | no significant difference

From patent US20020183332A1, “USE OF CYAMEMAZINE IN THE TREATMENT OF ABRUPT BENZODIAZEPHINE WITHDRAWAL” (priority 1999, published 2002)
